Here are results for 3 molecules from US8927718B2, “Fused heterocyclic ring derivative and use thereof” (Takeda Pharmaceutical Company Limited, priority 2009, dated 2015).

For the test, the target named is T1, Smo (Mus musculus, UniProt P56726).
T1 construct: endogenous in cells; host or cells: NIH-3T3 cells stably carrying the Gli luciferase reporter
T1 sequence (P56726 33-793): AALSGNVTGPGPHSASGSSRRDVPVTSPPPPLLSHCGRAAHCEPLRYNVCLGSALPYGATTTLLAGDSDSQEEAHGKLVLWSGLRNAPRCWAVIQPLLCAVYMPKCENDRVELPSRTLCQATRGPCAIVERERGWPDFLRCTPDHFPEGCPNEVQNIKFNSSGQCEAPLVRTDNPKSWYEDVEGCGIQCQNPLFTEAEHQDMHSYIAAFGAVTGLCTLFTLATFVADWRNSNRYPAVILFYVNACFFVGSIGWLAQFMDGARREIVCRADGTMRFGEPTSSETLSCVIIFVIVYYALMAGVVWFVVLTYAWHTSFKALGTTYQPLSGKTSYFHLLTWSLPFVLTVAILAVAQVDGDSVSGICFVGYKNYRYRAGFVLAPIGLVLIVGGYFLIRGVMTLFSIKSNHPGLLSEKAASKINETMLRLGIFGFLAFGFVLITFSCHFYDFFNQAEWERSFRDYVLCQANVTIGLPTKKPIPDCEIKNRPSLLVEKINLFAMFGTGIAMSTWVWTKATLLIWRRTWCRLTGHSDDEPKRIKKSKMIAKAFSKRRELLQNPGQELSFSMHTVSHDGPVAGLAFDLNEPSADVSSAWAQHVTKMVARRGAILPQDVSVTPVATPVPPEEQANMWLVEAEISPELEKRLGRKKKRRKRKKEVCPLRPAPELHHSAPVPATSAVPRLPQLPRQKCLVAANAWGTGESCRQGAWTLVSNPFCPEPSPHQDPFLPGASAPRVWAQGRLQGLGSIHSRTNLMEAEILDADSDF
Put plainly: Gli reporter luciferase assay in NIH-3T3/Gli reporter cells stimulated with mouse Shh-N end fragment. It counts as cell-based. As to conditions: NIH3T3, 1 μM compound, mouse Shh-N end fragment supernatant, 48 hr, luciferase activity, control without compound as 100, read-out: inhibitory rate (%) at 1 μM. The procedure:
Gli reporter plasmid was constructed by inserting 8× Gli-binding site and chicken δ-crystalline promoter into the upstream of luc+ of pGL3 (Promega).
HEK293 cells were grown in D-MEM medium (Invitrogen) containing 10% fetal bovine serum in a 10 cm dish and pcDNA3.1/mShh-N was introduced into the cells using FuGENE6 (Roche Applied Science). Thereafter, the HEK293 cells were cultured in a carbon dioxide gas incubator at 37° C. for 24 hours, and the medium was exchanged with D-MEM medium (Invitrogen) containing 2% fetal bovine serum. After culturing for 48 hr, a culture supernatant containing recombinant type mouse Shh-N end fragment was obtained by filtration using a filter ([…]).
Using D-MEM (Invitrogen) containing 10% fetal bovine serum, expression plasmid pcDNA3.1 and Gli reporter plasmid (pGL3/δ-cry promoter, 8× Gli binding site) produced by the method of Experimental Example 1 were introduced into NIH-3T3 cells grown in a 10 cm dish by the use of FuGENE6 (Roche Applied Science).
After culture for 24 hr, the cells were recovered, suspended in D-MEM medium containing 10% fetal bovine serum and supplemented with Geneticin (Life Technologies Oriental, Inc.) to a final concentration of 500 μg/ml, diluted to 10^4 cells/ml, plated on a 96 well plate, and cultured in a carbon dioxide gas incubator at 37° C. to give Geneticin resistant transformed cell line. […]
NIH-3T3/Gli reporter cells cultured in D-MEM (Invitrogen) containing 10% fetal bovine serum were plated in a 96 well white plate at 1×10^4 cells/well, and cultured overnight in a carbon dioxide gas incubator at 37° C. […] Bright-Glo (Promega, 50 μl) was added, and the mixture was stirred, after which luciferase activity was measured by EnVision (PerkinElmer). The inhibition rate was calculated based on the luciferase activity of the control without addition of the compound as 100.
Regarding `CCc1c(C(=O)NC2CCN(C(=O)CO)CC2)n(C)c2cc(CC)n(CC(=O)c3ccccc3)c(=O)c12` [Example 1, 3,6-diethyl-N-[1-(hydroxyacetyl)piperidin-4-yl]-1-methyl-4-oxo-5-(2-oxo-2-phenylethyl)-4,5-dihydro-1H-pyrrolo[3,2-c]pyridine-2-carboxamide], the inhibition at 1 µM stood at 100%.

Consider `C=Cc1c(C(=O)NC2CCN(C(=O)CO)CC2)n(C)c2cc(CC)n(CC(=O)c3ccccc3)c(=O)c12` [Example 2, 3-ethenyl-6-ethyl-N-[1-(hydroxyacetyl)piperidin-4-yl]-1-methyl-4-oxo-5-(2-oxo-2-phenylethyl)-4,5-dihydro-1H-pyrrolo[3,2-c]pyridine-2-carboxamide], for which the inhibition at 1 µM came to 100%.

For `CCNc1c(C(=O)NC2CCN(C(=O)CO)CC2)n(C)c2cc(CC)n(CC(=O)c3ccccc3)c(=O)c12` [Example 32, 6-ethyl-3-(ethylamino)-N-[1-(hydroxyacetyl)piperidin-4-yl]-1-methyl-4-oxo-5-(2-oxo-2-phenylethyl)-4,5-dihydro-1H-pyrrolo[3,2-c]pyridine-2-carboxamide], the inhibition at 1 µM was 98%.
